Legend:
[1] = biological target: T1, Macrophage colony-stimulating factor 1 receptor (Homo sapiens, UniProt P07333); assay: Inhibition of human recombinant CSF1R using ATP/Ulight-TK peptide at 50 nM incubated for 15 mins
[2] = biological target: Tyrosine-protein kinase CSK (Homo sapiens, UniProt P41240); assay: Inhibition of human full length recombinant CSK by radiometric scintillation counting analysis
[3] = biological target: Tyrosine-protein kinase HCK (Homo sapiens, UniProt P08631); assay: Inhibition of human recombinant HCK (230 to 497) by radiometric scintillation counting analysis
Tyrosine-protein kinase HCK, sequence (P08631 whole entry): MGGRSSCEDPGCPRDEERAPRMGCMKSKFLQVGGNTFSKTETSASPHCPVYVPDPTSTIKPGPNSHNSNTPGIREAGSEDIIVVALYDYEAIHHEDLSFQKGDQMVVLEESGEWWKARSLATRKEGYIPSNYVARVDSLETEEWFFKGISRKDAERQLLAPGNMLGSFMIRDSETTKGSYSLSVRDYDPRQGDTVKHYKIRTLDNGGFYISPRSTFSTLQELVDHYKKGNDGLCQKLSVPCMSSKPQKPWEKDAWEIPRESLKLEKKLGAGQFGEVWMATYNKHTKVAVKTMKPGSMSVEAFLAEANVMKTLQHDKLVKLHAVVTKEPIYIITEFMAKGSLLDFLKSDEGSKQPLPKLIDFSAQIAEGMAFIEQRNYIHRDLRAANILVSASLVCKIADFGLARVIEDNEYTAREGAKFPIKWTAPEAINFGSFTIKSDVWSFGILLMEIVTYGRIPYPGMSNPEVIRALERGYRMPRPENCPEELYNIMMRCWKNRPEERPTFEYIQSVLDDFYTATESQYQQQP

[4] = biological target: T2, Inhibitor of nuclear factor kappa-B kinase subunit alpha (Homo sapiens) (UniProt O15111); assay: Inhibition of human full length recombinant IKKalpha at 50 nM by radiometric scintillation counting analysis relative to control
T2 sequence (whole entry): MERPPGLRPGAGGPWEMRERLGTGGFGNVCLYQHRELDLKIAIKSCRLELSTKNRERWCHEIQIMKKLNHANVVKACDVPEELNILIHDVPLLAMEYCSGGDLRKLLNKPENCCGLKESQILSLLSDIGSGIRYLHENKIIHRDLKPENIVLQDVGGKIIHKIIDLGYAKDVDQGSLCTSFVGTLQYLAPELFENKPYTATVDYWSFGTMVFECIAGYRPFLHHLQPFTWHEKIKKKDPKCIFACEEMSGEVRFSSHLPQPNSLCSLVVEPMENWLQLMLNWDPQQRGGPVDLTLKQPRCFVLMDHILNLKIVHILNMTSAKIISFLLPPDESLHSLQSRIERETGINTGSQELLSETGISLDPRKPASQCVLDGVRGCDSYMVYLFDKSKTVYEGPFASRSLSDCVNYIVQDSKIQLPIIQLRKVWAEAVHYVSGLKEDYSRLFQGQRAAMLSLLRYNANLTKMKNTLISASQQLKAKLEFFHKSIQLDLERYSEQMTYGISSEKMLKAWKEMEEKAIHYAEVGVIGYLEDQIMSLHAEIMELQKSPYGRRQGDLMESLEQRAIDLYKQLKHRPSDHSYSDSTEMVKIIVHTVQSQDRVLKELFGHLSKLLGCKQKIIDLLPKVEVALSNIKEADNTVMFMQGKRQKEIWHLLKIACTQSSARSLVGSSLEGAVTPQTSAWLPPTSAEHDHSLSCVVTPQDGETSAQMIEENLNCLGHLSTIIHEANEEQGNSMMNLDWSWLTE

[5] = biological target: T3, Cytoplasmic tyrosine-protein kinase BMX (Homo sapiens) (UniProt P51813); assay: Inhibition of human full length recombinant Bmx at 50 nM by radiometric scintillation counting analysis relative to control
T3 sequence (whole entry): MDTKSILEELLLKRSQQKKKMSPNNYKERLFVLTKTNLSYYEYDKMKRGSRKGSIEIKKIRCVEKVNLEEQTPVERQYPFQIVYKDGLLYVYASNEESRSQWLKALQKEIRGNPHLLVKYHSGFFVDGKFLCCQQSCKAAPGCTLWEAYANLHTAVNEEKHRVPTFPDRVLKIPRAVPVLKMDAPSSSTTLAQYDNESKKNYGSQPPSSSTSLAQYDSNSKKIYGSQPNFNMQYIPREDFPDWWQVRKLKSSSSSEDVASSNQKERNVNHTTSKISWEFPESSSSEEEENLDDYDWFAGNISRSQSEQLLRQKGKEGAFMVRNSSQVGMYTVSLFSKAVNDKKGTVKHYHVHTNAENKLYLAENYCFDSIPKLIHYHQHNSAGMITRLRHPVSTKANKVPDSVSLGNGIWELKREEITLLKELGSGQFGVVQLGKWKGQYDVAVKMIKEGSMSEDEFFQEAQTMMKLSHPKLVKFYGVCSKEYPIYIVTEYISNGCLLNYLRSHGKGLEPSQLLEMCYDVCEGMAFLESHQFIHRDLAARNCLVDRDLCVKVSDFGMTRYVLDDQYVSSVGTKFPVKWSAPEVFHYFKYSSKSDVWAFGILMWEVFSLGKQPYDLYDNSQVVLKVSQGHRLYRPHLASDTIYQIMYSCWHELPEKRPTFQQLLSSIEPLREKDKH

TXK = TXK (Homo sapiens, UniProt P42681); assay: Inhibition of human recombinant Txk (256 to end) by radiometric scintillation counting analysis
TXK, sequence (P42681 whole entry, looked up): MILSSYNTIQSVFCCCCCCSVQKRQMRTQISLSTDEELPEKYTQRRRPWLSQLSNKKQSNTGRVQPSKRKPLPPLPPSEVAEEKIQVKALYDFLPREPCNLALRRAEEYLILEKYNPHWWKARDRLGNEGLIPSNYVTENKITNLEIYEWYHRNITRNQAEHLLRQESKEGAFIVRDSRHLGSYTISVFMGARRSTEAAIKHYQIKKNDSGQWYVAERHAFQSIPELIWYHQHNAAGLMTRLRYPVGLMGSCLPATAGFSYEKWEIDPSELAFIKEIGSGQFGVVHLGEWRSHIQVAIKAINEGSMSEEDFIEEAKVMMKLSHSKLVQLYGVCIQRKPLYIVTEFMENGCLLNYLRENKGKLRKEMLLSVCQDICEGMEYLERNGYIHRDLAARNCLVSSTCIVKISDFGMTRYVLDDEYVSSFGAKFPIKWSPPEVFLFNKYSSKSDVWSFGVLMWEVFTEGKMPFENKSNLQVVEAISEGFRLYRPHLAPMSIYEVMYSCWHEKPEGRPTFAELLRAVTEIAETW

[6] = biological target: Tyrosine-protein kinase Yes (Homo sapiens, UniProt P07947); assay: Inhibition of human full length recombinant Yes by radiometric scintillation counting analysis
Tyrosine-protein kinase Yes, sequence (P07947 whole entry): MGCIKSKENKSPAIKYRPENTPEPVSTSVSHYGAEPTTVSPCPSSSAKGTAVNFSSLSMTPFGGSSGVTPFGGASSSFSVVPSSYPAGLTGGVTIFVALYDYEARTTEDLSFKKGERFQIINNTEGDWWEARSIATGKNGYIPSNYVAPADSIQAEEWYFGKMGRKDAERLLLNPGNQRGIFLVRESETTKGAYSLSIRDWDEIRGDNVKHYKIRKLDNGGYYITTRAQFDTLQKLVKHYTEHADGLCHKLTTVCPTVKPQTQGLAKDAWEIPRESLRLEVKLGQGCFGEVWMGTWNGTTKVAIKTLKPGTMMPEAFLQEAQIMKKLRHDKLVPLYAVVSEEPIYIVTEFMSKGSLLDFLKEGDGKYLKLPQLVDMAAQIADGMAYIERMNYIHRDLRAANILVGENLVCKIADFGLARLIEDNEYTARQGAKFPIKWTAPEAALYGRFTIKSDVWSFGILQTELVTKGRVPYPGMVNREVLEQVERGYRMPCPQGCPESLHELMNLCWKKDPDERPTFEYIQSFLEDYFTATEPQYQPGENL

[7] = biological target: Tyrosine-protein kinase Fgr (Homo sapiens, UniProt P09769); assay: Inhibition of human recombinant FGR (456 to 770) radiometric scintillation counting analysis
Tyrosine-protein kinase Fgr, sequence (P09769 whole entry): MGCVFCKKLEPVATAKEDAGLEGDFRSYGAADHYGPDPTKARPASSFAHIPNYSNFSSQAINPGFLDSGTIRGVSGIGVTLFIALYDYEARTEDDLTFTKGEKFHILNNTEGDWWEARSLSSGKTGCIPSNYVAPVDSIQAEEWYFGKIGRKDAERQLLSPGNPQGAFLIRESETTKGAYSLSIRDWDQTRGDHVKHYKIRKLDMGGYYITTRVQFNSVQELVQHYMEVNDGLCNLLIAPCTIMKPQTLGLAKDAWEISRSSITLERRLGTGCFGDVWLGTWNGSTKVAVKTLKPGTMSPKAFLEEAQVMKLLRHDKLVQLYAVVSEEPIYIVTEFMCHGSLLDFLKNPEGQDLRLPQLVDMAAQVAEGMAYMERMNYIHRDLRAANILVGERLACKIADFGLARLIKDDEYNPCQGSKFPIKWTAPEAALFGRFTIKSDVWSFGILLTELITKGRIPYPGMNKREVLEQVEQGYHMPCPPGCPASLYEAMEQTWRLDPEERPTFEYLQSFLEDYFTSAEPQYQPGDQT

[8] = biological target: RAC-alpha serine/threonine-protein kinase (Homo sapiens) (UniProt P31749); assay: Inhibition of human recombinant PKBalpha at 500 nM radiometric scintillation counting analysis relative to control
RAC-alpha serine/threonine-protein kinase (Homo sapiens), sequence (P31749 whole entry): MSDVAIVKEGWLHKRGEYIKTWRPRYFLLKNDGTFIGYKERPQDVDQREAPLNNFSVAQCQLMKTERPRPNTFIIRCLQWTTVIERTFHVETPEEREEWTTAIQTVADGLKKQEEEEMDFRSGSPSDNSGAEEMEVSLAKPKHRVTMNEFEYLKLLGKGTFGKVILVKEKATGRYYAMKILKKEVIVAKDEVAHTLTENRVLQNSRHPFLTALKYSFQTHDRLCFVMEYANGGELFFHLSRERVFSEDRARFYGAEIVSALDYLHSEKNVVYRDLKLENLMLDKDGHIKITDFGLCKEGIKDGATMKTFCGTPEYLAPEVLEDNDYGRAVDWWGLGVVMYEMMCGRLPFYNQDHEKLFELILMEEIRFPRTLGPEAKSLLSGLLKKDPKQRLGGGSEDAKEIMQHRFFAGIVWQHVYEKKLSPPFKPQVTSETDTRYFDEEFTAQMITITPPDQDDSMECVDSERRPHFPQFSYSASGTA

[9] = biological target: Tyrosine-protein kinase JAK1 (Homo sapiens) (UniProt P23458); assay: Inhibition of human recombinant JAK1 at 5 nM radiometric scintillation counting analysis relative to control
[10] = biological target: RAC-alpha serine/threonine-protein kinase (Homo sapiens) (UniProt P31749); assay: Inhibition of human recombinant PKBalpha at 5 nM radiometric scintillation counting analysis relative to control
[11] = Half life in BALB/c mouse at 2 mg/kg, iv measured up to 24 hrs by LC-MS/MS analysis; format: ADME, organism-based; conditions: in vivo
[12] = Toxicity in anti-DNP IgE sensitized BALB/c mouse assessed as death at 40 mg/kg, po; format: organism-based; conditions: in vivo
[13] = Tmax in BALB/c mouse at 20 mg/kg, po measured up to 24 hrs by LC-MS/MS analysis; format: ADME, organism-based; conditions: in vivo
[14] = biological target: Mast/stem cell growth factor receptor Kit (Homo sapiens) (UniProt P10721); assay: Inhibition of human recombinant c-Kit at 5 nM by radiometric scintillation counting analysis relative to control
Mast/stem cell growth factor receptor Kit (Homo sapiens), sequence (P10721 whole entry): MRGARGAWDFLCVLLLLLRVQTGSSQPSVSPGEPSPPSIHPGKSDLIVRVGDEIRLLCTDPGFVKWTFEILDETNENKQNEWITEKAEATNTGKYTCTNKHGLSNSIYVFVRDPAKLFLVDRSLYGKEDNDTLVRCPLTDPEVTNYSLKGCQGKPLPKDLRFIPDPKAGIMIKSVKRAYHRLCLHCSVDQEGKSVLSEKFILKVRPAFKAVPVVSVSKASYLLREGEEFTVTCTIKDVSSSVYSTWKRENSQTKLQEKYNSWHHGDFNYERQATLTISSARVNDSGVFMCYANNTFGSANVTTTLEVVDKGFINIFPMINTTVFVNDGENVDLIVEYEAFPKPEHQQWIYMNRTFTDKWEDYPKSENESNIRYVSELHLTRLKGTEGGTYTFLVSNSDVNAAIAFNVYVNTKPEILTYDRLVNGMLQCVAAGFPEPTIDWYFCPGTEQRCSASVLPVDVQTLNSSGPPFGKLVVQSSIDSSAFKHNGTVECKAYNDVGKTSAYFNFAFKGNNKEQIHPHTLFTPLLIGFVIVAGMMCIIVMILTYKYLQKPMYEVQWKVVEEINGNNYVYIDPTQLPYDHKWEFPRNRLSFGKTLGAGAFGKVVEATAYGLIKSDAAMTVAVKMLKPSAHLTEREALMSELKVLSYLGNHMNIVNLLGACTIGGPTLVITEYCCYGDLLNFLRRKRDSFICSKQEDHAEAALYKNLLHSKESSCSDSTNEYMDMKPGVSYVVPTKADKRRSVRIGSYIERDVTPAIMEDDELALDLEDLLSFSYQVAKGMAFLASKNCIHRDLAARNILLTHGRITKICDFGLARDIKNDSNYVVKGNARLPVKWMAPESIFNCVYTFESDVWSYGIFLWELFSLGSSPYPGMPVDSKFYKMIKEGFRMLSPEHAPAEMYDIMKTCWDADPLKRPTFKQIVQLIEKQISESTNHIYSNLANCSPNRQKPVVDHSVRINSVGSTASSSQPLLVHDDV

[15] = Toxicity in anti-DNP IgE sensitized BALB/c mouse assessed as vomiting at 40 mg/kg, po; format: organism-based; conditions: in vivo
[16] = Clearance in BALB/c mouse at 2 mg/kg, iv measured up to 24 hrs by LC-MS/MS analysis; format: ADME, organism-based; conditions: in vivo
[17] = AUC (0 to t) in BALB/c mouse at 20 mg/kg, po measured up to 24 hrs by LC-MS/MS analysis; format: ADME, organism-based; design: route oral, dose 20 mg/kg, time <=24; conditions: in vivo
RBL-2H3 [18] = assay: Antiallergic activity against anti-DNP-IgE sensitized rat RBL-2H3 cells assessed as […] of degranulation by measuring beta-hexosaminidase release using P-nitrophenyl-N-acetyl-D-glucosamide as substrate at 1 uM measured after 1 hr by microplate reader relative to control; format: functional
[19] = biological target: T1, Macrophage colony-stimulating factor 1 receptor; assay: Inhibition of human recombinant CSF1R using ATP/Ulight-TK peptide incubated for 15 mins
RBL-2H3 [20] = assay: Inhibition of Akt phosphorylation in rat RBL-2H3 cells assessed as inhibition of Fc epsilonRI-mediated signal transduction by Western blot analysis; format: cell-based; conditions: dose 8-200 nM
[21] = Toxicity in anti-DNP IgE sensitized BALB/c mouse assessed as splenomegaly at 40 mg/kg, po; format: organism-based; conditions: in vivo
RBL-2H3 [22] = assay: Antiallergic activity against anti-DNP-IgE sensitized rat RBL-2H3 cells assessed as […] of degranulation by measuring beta-hexosaminidase release using P-nitrophenyl-N-acetyl-D-glucosamide as substrate at 0.2 uM measured after 1 hr by microplate reader relative to control; format: functional

T1 sequence (P07333 whole entry): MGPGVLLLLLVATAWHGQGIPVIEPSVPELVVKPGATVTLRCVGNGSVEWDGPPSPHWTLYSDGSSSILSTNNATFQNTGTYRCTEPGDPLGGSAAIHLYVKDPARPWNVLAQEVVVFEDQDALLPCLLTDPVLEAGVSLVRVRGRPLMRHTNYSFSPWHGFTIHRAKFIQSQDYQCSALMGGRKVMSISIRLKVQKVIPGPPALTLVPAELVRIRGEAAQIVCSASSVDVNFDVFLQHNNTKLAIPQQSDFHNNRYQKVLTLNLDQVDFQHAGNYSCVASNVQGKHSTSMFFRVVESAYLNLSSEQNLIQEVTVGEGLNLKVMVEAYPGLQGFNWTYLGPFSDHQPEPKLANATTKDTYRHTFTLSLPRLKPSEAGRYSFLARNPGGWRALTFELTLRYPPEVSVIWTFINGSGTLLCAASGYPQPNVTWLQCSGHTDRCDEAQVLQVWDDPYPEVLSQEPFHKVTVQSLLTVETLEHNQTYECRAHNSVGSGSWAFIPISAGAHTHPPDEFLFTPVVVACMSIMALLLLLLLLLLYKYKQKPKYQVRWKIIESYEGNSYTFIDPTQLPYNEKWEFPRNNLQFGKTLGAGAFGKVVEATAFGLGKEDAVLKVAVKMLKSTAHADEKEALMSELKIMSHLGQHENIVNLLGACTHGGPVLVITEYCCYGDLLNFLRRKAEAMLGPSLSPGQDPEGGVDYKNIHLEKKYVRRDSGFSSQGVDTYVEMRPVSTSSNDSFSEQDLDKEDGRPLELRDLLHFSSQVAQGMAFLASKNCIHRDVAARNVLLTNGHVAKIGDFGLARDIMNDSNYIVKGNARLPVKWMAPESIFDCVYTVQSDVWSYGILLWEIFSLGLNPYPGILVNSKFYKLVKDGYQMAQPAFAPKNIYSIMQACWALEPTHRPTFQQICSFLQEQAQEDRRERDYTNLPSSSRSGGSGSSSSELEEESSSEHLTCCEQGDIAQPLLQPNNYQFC
Tyrosine-protein kinase CSK, sequence (P41240 whole entry): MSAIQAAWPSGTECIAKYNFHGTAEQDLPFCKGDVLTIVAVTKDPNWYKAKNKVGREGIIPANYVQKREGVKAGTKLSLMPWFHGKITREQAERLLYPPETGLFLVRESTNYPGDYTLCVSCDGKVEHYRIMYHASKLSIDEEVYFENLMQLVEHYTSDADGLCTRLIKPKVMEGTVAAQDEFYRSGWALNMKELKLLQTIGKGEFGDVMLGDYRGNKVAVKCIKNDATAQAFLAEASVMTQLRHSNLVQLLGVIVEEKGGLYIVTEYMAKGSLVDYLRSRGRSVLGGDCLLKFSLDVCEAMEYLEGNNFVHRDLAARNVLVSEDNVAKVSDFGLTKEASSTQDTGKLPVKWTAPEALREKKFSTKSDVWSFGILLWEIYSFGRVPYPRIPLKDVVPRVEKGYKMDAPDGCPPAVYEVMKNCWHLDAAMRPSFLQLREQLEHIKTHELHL

SMILES | IC50 [1] [nM] | IC50 [2] [nM] | IC50 [3] [nM] | inhibition [4] [%] | inhibition [5] [%] | IC50 (TXK) [nM] | IC50 [6] [nM] | IC50 [7] [nM] | inhibition [8] [%] | inhibition [10] [%] | inhibition [14] [%] | inhibition at 1 µM (RBL-2H3 [18]) [%] | IC50 [19] [nM] | inhibition at 0.2 µM (RBL-2H3 [22]) [%] | other results
Cc1ccc(C(=O)Nc2ccc(Cl)cc2Cl)cc1C#Cc1cc(-c2cnn(C)c2)cnc1N | 11 | > 1000 | 57 | 9 | 23 | > 1000 | > 1000 | > 1000 | 2 | 4 | – | – | – | – | inhibition [9]: 14%
Cc1ccc(C(=O)Nc2cc(C(F)(F)F)cc(C(F)(F)F)c2)cc1C#Cc1cc(-c2cnn(C)c2)cnc1N | 48 | 187 | 9 | 3 | 24 | 185 | 95 | 41 | – | -5 | 7 | 144 | 48 | 162 | half-life [11]: 5.57 h; Activity [12]: Non-Toxic; Tmax [13]: 2.67 h; Activity [15]: Non-Toxic; clearance [16]: 15.2 mL/min/kg; AUC(0-t) at 24 h [17]: 21300 ng·h/mL; inhibition (RBL-2H3 [20]): Dose-Dependent Effect; Activity [21]: Non-Toxic
Cc1ccc(C(=O)Nc2ccc(OC(F)(F)F)cc2)cc1C#Cc1cc(-c2cnn(C)c2)cnc1N | – | – | – | – | – | – | – | – | -5 | – | 13 | 144 | 22 | 122 | –

Reference: ChEMBL document CHEMBL4837249, “Discovery of Potent Antiallergic Agents Based on an o-Aminopyridinyl Alkynyl Scaffold” (J Med Chem, 2021)
